Assay results taken from PMC9792776 (Frontiers in Pharmacology, 2022).
Read-outs that look alike come from different tables or passages of the source.

Columns and labels:
[1] = target: T1, OAT1 (Homo sapiens, UniProt Q4U2R8); experiment: Transporter substrate/inhibitor assessment, OAT1; assay type: in vitro ADME
T1 sequence (Q4U2R8 1-563): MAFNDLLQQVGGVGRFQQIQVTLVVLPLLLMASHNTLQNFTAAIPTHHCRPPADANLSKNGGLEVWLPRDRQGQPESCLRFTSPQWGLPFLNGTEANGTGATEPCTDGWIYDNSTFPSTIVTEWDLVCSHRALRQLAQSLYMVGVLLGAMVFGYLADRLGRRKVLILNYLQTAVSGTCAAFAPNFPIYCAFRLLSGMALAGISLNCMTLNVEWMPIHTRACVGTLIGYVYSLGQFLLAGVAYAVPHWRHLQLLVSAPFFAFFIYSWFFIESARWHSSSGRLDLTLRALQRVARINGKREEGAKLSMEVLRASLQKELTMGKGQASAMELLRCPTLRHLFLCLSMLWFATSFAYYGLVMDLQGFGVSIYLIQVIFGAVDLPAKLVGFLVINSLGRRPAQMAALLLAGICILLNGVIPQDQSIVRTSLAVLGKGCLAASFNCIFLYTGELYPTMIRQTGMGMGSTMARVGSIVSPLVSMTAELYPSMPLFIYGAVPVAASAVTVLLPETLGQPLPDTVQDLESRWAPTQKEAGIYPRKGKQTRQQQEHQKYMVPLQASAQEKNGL

[2] = test system: CYP2B6; experiment: CYP2B6 mRNA induction in cultured human hepatocytes; assay type: cell-based; details: for EC50: human, cultured human hepatocytes
[3] = target: T2, OCT2 (Homo sapiens, UniProt O15244); experiment: Transporter substrate/inhibitor assessment, OCT2; assay type: in vitro ADME
T2 sequence (O15244 1-555): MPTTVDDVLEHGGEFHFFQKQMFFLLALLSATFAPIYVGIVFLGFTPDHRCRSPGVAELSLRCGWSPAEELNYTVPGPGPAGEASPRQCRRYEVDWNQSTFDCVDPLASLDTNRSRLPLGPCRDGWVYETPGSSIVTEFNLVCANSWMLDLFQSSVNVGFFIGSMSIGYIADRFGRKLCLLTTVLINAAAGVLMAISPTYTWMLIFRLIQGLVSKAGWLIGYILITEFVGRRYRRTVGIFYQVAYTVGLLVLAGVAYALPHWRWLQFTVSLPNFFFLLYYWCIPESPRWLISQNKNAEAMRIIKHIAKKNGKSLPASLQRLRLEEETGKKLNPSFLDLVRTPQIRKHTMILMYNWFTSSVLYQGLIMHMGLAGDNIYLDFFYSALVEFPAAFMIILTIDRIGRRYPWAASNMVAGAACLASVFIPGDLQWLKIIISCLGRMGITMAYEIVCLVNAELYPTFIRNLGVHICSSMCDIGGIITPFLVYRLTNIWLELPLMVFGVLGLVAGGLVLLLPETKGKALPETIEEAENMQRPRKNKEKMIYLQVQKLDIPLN

[4] = target: T3, OATP1B1 (Homo sapiens, UniProt Q9Y6L6); experiment: Transporter substrate/inhibitor assessment, OATP1B1; assay type: in vitro ADME
T3 sequence (Q9Y6L6 1-691): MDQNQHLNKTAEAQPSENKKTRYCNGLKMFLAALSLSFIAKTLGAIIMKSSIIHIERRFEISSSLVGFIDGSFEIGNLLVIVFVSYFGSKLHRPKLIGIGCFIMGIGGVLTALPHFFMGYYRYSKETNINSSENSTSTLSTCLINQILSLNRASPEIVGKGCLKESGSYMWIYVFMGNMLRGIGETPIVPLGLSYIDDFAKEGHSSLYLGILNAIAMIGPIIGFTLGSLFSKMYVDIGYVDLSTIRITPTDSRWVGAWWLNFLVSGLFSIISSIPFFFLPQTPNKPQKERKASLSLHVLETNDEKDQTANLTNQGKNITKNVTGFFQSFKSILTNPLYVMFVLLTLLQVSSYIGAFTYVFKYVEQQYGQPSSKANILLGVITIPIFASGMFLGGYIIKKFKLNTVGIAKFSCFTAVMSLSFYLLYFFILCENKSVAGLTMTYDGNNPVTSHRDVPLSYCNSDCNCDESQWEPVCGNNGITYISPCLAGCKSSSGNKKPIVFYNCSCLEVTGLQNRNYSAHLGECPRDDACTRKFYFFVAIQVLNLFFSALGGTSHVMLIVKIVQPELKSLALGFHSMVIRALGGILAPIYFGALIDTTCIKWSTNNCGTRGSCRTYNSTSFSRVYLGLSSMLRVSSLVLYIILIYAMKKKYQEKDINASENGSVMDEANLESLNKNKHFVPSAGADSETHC

[5] = pKa; assay type: physicochemical
Excerpt: TABLE 1 Model development and model parameters. | column: Value

[6] = target: T4, OATP1B3 (Homo sapiens, UniProt Q9NPD5); experiment: Transporter substrate/inhibitor assessment, OATP1B3; assay type: in vitro ADME
T4 sequence (Q9NPD5 1-702): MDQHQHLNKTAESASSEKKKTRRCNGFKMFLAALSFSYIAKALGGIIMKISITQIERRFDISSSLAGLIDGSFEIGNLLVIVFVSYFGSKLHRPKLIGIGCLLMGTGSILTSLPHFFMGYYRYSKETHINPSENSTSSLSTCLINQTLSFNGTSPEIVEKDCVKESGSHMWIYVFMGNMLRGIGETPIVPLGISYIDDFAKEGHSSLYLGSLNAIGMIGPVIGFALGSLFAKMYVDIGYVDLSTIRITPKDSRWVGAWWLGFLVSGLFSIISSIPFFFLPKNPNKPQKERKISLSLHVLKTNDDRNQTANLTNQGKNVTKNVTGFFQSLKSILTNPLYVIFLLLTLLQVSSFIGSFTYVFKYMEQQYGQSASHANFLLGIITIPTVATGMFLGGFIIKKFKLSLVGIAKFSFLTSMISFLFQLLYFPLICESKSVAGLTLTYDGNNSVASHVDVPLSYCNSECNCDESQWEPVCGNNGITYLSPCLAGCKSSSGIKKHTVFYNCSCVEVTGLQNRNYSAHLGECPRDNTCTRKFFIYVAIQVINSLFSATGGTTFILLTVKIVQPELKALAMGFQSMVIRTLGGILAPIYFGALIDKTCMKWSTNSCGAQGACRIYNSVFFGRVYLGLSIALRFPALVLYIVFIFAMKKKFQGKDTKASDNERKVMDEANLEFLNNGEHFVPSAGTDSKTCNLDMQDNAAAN

[7] = target: P-gp (Homo sapiens, UniProt P08183); experiment: P-gp inhibition (Ki calculated from IC50); assay type: in vitro ADME; details: calculated with IC50, substrate concentration and substrate Km
P-gp, sequence (P08183 whole entry): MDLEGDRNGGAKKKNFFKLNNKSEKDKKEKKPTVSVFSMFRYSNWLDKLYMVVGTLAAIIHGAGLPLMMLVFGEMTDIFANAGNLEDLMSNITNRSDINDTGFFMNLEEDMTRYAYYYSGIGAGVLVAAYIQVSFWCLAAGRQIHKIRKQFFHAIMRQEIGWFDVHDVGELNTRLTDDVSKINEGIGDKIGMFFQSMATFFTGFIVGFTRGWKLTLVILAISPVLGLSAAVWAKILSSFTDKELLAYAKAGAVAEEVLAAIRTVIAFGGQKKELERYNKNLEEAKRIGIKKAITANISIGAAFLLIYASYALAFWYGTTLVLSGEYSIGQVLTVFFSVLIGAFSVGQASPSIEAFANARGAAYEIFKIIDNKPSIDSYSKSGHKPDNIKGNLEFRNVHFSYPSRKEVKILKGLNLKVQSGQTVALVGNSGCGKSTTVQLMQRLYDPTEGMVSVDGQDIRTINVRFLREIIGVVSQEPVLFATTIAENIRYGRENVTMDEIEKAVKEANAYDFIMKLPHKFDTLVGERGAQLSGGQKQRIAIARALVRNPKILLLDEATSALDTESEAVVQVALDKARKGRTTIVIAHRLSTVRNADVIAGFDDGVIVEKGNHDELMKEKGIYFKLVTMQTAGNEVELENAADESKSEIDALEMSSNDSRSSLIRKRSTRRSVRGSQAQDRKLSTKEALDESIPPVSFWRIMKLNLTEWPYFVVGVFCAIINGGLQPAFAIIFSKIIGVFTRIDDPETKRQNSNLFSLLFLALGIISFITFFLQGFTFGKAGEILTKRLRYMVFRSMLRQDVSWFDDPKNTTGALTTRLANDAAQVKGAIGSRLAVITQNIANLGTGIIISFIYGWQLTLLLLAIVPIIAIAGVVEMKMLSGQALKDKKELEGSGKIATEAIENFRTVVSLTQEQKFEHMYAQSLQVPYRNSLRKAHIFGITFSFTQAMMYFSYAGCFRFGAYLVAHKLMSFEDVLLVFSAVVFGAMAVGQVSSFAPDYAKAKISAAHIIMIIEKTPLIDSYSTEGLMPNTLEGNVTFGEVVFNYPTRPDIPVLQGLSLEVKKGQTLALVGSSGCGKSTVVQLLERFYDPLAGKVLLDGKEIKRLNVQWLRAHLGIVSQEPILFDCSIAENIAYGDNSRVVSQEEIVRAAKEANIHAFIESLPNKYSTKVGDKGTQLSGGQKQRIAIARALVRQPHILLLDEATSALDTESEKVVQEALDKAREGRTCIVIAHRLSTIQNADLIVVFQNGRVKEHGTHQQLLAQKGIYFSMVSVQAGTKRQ

For `Cc1ccc(C(=O)Nc2ccc(CN3CCN(C)CC3)c(C(F)(F)F)c2)cc1C#Cc1cnc2[nH]ncc2c1` [olverembatinib, Olverembatinib], the “substrate or inhibitor of OAT1” value [1] was “neither a substrate nor inhibitor”, the EC50 ([2]; CYP2B6 mRNA, lot AIH, read-out: EC50) was 0.828 µM and the EC50 ([2]; CYP2B6 mRNA, lot HUM182851, read-out: EC50) was 0.29 µM. The EC50 ([2]; human hepatocytes, mRNA, mean of two lots, read-out: IndC50 CYP2B6 (Mean EC50)) was 0.559 µM, the “CYP2B6 induction, strength” value ([2]; in vitro studies) was “weak” and the “substrate or inhibitor of OCT2” value [3] was “neither a substrate nor inhibitor”. The “substrate or inhibitor of OATP1B1” value [4] was “neither a substrate nor inhibitor”, the pKa ([5]; read-out: pKa 1) was 2.9 and the pKa ([5]; read-out: pKa 2) was 10.9. For the same compound, the “substrate or inhibitor of OATP1B3” value [6] was “neither a substrate nor inhibitor” and the Ki [7] was 2.23 µM.
